{"source": "paper PMC8333425", "about": "“Discovery of a dual Ras and ARF6 inhibitor from a GPCR endocytosis screen” (Nature Communications, 2021)", "assay_in_all_cases": "KINOMEscan kinase binding assay", "key": {"[1]": {"biological_target": "T1, 384 kinases from the human genome (Homo sapiens, UniProt Q99755)", "T1 construct": "purchased Eurofin/DiscoverX", "conditions": "kinase PIP5K1A (Entrez PIP5K1A)", "outline": "(§1)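 Competition binding (KINOMEscan) across 384 human kinases with compound at 10 µM. Ligand binding was expressed relative to DMSO (100%) as the average of duplicates from one experiment. S(10) selectivity score was derived.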"}, "[2]": {"biological_target": "T2, 384 kinases from the human genome (Homo sapiens, UniProt Q16659)", "T2 construct": "purchased Eurofin/DiscoverX", "conditions": "kinase ERK3 (Entrez MAPK6)", "outline": "as §1"}, "[3]": {"biological_target": "T3, 384 kinases from the human genome (Homo sapiens, UniProt Q8TDC3)", "T3 construct": "purchased Eurofin/DiscoverX", "T3 sequence (Q8TDC3 whole entry)": "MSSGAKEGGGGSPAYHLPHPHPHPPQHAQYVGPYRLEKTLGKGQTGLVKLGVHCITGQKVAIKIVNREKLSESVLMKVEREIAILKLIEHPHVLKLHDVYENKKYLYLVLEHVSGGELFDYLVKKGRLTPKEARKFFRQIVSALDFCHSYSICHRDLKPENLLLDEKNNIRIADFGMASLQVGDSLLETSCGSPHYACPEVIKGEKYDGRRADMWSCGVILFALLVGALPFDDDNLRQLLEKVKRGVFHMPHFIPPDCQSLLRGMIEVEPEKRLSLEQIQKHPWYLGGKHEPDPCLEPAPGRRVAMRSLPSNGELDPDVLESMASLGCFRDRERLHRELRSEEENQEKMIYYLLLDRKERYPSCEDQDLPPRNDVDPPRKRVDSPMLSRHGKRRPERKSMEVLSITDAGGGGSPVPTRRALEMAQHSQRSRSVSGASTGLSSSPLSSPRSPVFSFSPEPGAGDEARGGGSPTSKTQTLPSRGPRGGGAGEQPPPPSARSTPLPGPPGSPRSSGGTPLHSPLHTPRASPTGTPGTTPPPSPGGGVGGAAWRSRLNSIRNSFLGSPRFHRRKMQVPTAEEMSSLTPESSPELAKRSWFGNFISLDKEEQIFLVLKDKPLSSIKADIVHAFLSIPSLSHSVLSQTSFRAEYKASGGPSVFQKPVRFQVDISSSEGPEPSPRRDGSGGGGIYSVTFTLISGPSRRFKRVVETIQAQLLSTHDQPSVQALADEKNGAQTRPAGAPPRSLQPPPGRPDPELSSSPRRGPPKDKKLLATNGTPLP", "conditions": "kinase BRSK1 (Entrez BRSK1)", "outline": "as §1"}, "[4]": {"biological_target": "T4, 384 kinases from the human genome (Homo sapiens, UniProt Q6XUX3)", "T4 construct": "purchased Eurofin/DiscoverX", "conditions": "kinase RIPK5 (Entrez DSTYK)", "outline": "as §1"}, "[5]": {"biological_target": "T5, 384 kinases from the human genome (Homo sapiens, UniProt Q8WU08)", "T5 construct": "purchased Eurofin/DiscoverX", "conditions": "kinase YANK1 (Entrez STK32A)", "outline": "as §1"}, "[6]": {"biological_target": "T6, 384 kinases from the human genome (Homo sapiens, UniProt P49761)", "T6 construct": "purchased Eurofin/DiscoverX", "conditions": "kinase CLK3 (Entrez CLK3)", "outline": "as §1"}, "[7]": {"biological_target": "T7, 384 kinases from the human genome (Homo sapiens, UniProt Q13177)", "T7 construct": "purchased Eurofin/DiscoverX", "conditions": "kinase PAK2 (Entrez PAK2)", "outline": "as §1"}, "[8]": {"biological_target": "T8, 384 kinases from the human genome (Homo sapiens, UniProt Q02763)", "T8 construct": "purchased Eurofin/DiscoverX", "conditions": "kinase TIE2 (Entrez TEK)", "outline": "as §1"}, "[9]": {"biological_target": "T9, 384 kinases from the human genome (Homo sapiens, UniProt Q15569)", "T9 construct": "purchased Eurofin/DiscoverX", "conditions": "kinase TESK1 (Entrez TESK1)", "outline": "as §1"}, "[10]": {"biological_target": "T10, 384 kinases from the human genome (Homo sapiens, UniProt Q8NG66)", "T10 construct": "purchased Eurofin/DiscoverX", "T10 sequence (Q8NG66 whole entry)": "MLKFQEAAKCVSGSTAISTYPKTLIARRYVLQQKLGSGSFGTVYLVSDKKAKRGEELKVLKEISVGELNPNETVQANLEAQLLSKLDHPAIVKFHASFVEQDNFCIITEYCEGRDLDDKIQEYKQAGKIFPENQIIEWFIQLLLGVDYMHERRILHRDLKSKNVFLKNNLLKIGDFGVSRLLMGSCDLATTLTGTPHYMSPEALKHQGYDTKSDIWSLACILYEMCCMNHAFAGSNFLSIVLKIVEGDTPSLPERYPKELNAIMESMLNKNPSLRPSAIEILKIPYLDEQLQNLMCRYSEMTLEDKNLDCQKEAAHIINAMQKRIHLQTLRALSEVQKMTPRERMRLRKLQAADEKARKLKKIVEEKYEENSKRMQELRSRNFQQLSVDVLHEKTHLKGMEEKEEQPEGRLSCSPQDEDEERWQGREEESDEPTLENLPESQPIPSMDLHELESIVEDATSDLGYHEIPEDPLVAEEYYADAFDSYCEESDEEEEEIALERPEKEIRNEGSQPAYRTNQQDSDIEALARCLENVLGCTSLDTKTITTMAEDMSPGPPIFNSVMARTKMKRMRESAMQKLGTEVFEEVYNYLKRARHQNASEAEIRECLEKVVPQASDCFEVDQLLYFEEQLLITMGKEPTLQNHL", "conditions": "kinase NEK11 (Entrez NEK11)", "outline": "as §1"}, "[11]": {"biological_target": "T11, 384 kinases from the human genome (Homo sapiens, UniProt O75914)", "T11 construct": "purchased Eurofin/DiscoverX", "conditions": "kinase PAK3 (Entrez PAK3)", "outline": "as §1"}, "[12]": {"biological_target": "T12, 384 kinases from the human genome (Homo sapiens, UniProt Q16513)", "T12 construct": "purchased Eurofin/DiscoverX", "conditions": "kinase PKN2 (Entrez PKN2)", "outline": "as §1"}, "[13]": {"biological_target": "T13, 384 kinases from the human genome (Homo sapiens, UniProt P42684)", "T13 construct": "purchased Eurofin/DiscoverX", "conditions": "kinase ABL2 (Entrez ABL2)", "outline": "as §1"}, "[14]": {"biological_target": "T14, 384 kinases from the human genome (Homo sapiens, UniProt P54646)", "T14 construct": "purchased Eurofin/DiscoverX", "conditions": "kinase AMPK-alpha2 (Entrez PRKAA2)", "outline": "as §1"}, "[15]": {"biological_target": "T15, 384 kinases from the human genome (Homo sapiens, UniProt P78362)", "T15 construct": "purchased Eurofin/DiscoverX", "conditions": "kinase SRPK2 (Entrez SRPK2)", "outline": "as §1"}, "[16]": {"biological_target": "T16, 384 kinases from the human genome (Homo sapiens, UniProt P07948)", "T16 construct": "purchased Eurofin/DiscoverX", "T16 sequence (P07948 whole entry)": "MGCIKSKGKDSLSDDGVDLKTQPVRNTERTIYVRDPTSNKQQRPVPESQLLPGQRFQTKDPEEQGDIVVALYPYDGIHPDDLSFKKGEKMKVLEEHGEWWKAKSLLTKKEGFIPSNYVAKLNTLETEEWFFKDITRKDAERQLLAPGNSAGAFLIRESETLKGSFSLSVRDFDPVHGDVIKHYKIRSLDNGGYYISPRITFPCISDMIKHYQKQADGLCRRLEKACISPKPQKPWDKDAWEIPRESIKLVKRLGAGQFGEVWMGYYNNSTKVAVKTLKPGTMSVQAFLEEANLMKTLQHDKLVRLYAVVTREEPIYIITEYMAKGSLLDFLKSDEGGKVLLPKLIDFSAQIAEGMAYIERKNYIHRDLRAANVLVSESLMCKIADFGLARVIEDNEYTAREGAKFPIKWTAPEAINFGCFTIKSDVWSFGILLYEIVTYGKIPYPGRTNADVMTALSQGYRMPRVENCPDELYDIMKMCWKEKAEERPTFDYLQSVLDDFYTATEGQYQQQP", "conditions": "kinase LYN (Entrez LYN)", "outline": "as §1"}, "[17]": {"biological_target": "T17, 384 kinases from the human genome (Homo sapiens, UniProt P45984)", "T17 construct": "purchased Eurofin/DiscoverX", "T17 sequence (P45984 whole entry)": "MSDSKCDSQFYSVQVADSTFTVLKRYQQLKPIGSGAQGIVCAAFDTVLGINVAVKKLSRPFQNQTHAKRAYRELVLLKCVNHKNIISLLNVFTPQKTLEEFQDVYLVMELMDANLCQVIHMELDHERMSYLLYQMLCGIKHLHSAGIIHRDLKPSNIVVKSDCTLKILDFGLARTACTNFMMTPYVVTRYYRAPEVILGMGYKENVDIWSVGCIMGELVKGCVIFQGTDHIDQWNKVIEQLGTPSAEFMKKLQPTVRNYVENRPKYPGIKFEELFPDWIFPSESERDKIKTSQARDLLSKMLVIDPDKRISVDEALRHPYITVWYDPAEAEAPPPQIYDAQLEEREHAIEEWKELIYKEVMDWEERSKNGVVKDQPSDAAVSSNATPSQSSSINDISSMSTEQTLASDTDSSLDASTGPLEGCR", "conditions": "kinase JNK2 (Entrez MAPK9)", "outline": "as §1"}, "[18]": {"biological_target": "T18, 384 kinases from the human genome (Homo sapiens, UniProt Q9BYP7)", "T18 construct": "purchased Eurofin/DiscoverX", "T18 sequence (Q9BYP7 whole entry)": "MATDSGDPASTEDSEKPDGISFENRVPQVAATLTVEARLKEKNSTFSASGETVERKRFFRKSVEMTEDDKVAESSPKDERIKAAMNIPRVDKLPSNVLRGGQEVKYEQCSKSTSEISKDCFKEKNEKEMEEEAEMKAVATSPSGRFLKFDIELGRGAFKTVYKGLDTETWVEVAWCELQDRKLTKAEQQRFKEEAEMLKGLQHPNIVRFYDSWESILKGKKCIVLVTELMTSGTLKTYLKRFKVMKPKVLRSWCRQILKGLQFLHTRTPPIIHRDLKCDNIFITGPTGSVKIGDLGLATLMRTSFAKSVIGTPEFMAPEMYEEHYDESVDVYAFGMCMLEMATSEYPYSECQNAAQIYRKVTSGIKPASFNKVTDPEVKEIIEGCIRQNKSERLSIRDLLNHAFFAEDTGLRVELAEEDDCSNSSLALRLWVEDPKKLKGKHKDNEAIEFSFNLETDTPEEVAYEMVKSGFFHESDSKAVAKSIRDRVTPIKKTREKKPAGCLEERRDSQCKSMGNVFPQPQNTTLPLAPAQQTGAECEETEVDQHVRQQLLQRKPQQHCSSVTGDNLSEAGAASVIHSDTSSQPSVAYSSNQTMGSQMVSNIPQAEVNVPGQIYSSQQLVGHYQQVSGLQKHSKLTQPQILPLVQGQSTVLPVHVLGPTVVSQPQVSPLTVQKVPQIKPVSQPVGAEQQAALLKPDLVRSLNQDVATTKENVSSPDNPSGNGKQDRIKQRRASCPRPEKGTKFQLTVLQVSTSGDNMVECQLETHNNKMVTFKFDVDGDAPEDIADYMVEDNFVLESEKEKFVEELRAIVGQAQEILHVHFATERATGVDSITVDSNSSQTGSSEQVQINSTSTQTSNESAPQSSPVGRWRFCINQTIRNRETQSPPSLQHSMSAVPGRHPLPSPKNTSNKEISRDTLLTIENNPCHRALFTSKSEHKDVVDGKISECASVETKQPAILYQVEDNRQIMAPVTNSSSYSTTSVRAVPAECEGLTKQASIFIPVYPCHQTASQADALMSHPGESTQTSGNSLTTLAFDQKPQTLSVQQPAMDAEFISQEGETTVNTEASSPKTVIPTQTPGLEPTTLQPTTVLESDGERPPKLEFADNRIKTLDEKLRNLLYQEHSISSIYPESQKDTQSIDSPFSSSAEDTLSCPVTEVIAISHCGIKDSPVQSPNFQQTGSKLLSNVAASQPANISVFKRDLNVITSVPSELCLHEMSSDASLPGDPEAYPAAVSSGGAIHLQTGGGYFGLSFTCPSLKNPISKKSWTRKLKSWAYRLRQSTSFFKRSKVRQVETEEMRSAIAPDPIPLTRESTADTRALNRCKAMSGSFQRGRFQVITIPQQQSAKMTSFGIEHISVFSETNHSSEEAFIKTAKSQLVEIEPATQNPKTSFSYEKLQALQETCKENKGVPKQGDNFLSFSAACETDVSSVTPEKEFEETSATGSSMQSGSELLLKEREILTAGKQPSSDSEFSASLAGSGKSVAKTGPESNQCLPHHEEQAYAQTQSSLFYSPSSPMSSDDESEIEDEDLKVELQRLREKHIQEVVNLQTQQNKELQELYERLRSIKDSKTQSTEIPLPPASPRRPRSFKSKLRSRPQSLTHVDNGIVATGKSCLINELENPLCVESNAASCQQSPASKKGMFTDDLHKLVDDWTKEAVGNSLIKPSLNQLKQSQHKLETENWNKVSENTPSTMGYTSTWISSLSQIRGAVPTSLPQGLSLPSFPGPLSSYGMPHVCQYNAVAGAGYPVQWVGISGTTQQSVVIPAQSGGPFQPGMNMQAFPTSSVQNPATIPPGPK", "conditions": "kinase WNK3 (Entrez WNK3)", "outline": "as §1"}, "[19]": {"biological_target": "T19, 384 kinases from the human genome (Homo sapiens, UniProt Q9HBY8)", "T19 construct": "purchased Eurofin/DiscoverX", "conditions": "kinase SGK2 (Entrez SGK2)", "outline": "as §1"}, "[20]": {"biological_target": "T20, 384 kinases from the human genome (Homo sapiens, UniProt P31152)", "T20 construct": "purchased Eurofin/DiscoverX", "conditions": "kinase ERK4 (Entrez MAPK4)", "outline": "as §1"}, "[21]": {"biological_target": "T21, 384 kinases from the human genome (Homo sapiens, UniProt Q13705)", "T21 construct": "purchased Eurofin/DiscoverX", "conditions": "kinase ACVR2B (Entrez ACVR2B)", "outline": "as §1"}, "[22]": {"biological_target": "T22, 384 kinases from the human genome (Homo sapiens, UniProt Q8TD08)", "T22 construct": "purchased Eurofin/DiscoverX", "conditions": "kinase ERK8 (Entrez MAPK15)", "outline": "as §1"}, "[23]": {"biological_target": "T23, 384 kinases from the human genome (Homo sapiens, UniProt Q96L34)", "T23 construct": "purchased Eurofin/DiscoverX", "conditions": "kinase MARK4 (Entrez MARK4)", "outline": "as §1"}, "[24]": {"biological_target": "T24, 384 kinases from the human genome (Homo sapiens, UniProt Q9UQ88)", "T24 construct": "purchased Eurofin/DiscoverX", "conditions": "kinase CDC2L2 (Entrez CDC2L2)", "outline": "as §1"}, "[25]": {"biological_target": "T25, 384 kinases from the human genome (Homo sapiens, UniProt Q96RR4)", "T25 construct": "purchased Eurofin/DiscoverX", "T25 sequence (Q96RR4 whole entry)": "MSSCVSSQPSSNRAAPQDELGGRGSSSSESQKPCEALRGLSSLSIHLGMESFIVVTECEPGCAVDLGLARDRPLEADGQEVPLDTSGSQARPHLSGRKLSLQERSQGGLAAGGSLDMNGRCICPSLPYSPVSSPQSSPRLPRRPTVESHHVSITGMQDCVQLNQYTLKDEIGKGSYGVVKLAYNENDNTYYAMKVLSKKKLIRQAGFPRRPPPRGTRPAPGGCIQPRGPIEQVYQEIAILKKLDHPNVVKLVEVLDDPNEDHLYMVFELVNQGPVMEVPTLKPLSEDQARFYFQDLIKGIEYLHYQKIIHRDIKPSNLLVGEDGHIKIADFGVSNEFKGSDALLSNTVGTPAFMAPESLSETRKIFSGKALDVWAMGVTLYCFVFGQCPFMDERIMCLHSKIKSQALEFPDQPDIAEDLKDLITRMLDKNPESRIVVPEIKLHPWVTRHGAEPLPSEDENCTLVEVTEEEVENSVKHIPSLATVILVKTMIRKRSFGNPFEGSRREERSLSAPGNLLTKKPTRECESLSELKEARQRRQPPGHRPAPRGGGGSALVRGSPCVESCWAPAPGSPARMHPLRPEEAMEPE", "conditions": "kinase CAMKK2 (Entrez CAMKK2)", "outline": "as §1"}, "[26]": {"biological_target": "T26, 384 kinases from the human genome (Homo sapiens, UniProt Q04912)", "T26 construct": "purchased Eurofin/DiscoverX", "conditions": "kinase MST1R (Entrez MST1R)", "outline": "as §1"}}}
{"smiles": "CC(C)C(=O)N1CCN(c2ccc(NC(=O)c3cc4ccccc4o3)cc2Cl)CC1", "note": "[Compound 21]", "values": [{"measurement": "Percent Control", "setting": "[1]", "result": 100, "unit": "%"}, {"measurement": "Percent Control", "setting": "[2]", "result": 90, "unit": "%"}, {"measurement": "Percent Control", "setting": "[3]", "result": 99, "unit": "%"}, {"measurement": "Percent Control", "setting": "[4]", "result": 78, "unit": "%"}, {"measurement": "Percent Control", "setting": "[5]", "result": 81, "unit": "%"}, {"measurement": "Percent Control", "setting": "[6]", "result": 100, "unit": "%"}, {"measurement": "Percent Control", "setting": "[7]", "result": 100, "unit": "%"}, {"measurement": "Percent Control", "setting": "[8]", "result": 88, "unit": "%"}, {"measurement": "Percent Control", "setting": "[9]", "result": 82, "unit": "%"}, {"measurement": "Percent Control", "setting": "[10]", "result": 97, "unit": "%"}, {"measurement": "Percent Control", "setting": "[11]", "result": 92, "unit": "%"}, {"measurement": "Percent Control", "setting": "[12]", "result": 100, "unit": "%"}, {"measurement": "Percent Control", "setting": "[13]", "result": 91, "unit": "%"}, {"measurement": "Percent Control", "setting": "[14]", "result": 85, "unit": "%"}, {"measurement": "Percent Control", "setting": "[15]", "result": 80, "unit": "%"}, {"measurement": "Percent Control", "setting": "[16]", "result": 100, "unit": "%"}, {"measurement": "Percent Control", "setting": "[17]", "result": 70, "unit": "%"}, {"measurement": "Percent Control", "setting": "[18]", "result": 90, "unit": "%"}, {"measurement": "Percent Control", "setting": "[19]", "result": 100, "unit": "%"}, {"measurement": "Percent Control", "setting": "[20]", "result": 100, "unit": "%"}, {"measurement": "Percent Control", "setting": "[21]", "result": 89, "unit": "%"}, {"measurement": "Percent Control", "setting": "[22]", "result": 100, "unit": "%"}, {"measurement": "Percent Control", "setting": "[23]", "result": 98, "unit": "%"}, {"measurement": "Percent Control", "setting": "[24]", "result": 95, "unit": "%"}, {"measurement": "Percent Control", "setting": "[25]", "result": 100, "unit": "%"}, {"measurement": "Percent Control", "setting": "[26]", "result": 91, "unit": "%"}]}
